Reference: US20260365646A1, “AKT1 MODULATORS” (Alterome Therapeutics, Inc., priority 2022, published 2026)
pEC50: −log10 of the molar value.

Target: T1, full length AKT E17K (Homo sapiens, UniProt P31749, E17K)
T1 construct: host or cells: HEK-293 (ATCC CRL-1573)
Assay: NanoBRET Target Engagement (TE) Intracellular Kinase Assay
Assay type: cell-based
Settings: not given
Excerpt: The NanoBRET™ Target Engagement (TE) Intracellular Kinase Assays are based on the NanoBRET™ System (Promega Corporation), an energy transfer technique designed to measure molecular proximity in living cells. The NanoBRET™ TE Assays measure the apparent affinity of test compounds by competitive displacement of the NanoBRET™ tracer compound, which is a cell permeable molecule engineered to be reversibly bound to a NanoLuc® luciferase-kinase fusion expressed in cells. For compound screening, when a test compound binds to the selected kinase, the BRET signal is attenuated. […] All cells were evaluated for viability prior to transfection and optimization of the transfection was done prior to experimentation. […] Following transfection, cells were washed and resuspended in Opti-MEM. NanoBRET assays were performed in white, 384-well plates (Corning) at a density of 2×10^5 cells/well. All example compounds were prepared as concentrated stock solutions in DMSO (Sigma-Aldrich). Compounds are dissolved in DMSO to make 10 mM stock solution. […] A Labcyte ECHO 550 compound dispenser was used to facilitate compound transfer directly to cells. Cells were equilibrated for 2 hr with energy transfer probes and example compound prior to BRET measurements. […] For target engagement analysis, the energy transfer probes were added to the cells at concentrations optimized for the target in question (AKT E17K). Following compound incubation, NanoBRET NanoGlo Substrate (Promega Cat #Ni57D) and Extracellular Nanoluc Inhibitor (Promega Cat #N235C) was added according to the manufacturer's recommended protocol, and luminescence was measured on Envision Reader (Perkin Elmer) Multimode Luminometer equipped with 450 nm BPfilter (donor) and 600 nm LPfilter (acceptor), using 0.5 s integration time. Milli-BRET units (mBU) are calculated by multiplying the raw BRET values by 1000. Apparent tracer affinity values (EC50) were determined using the sigmoidal dose-response (variable slope). Competitive displacement data were then plotted and data were fit to determine the EC50 value for each example compound.

T1 sequence (P31749 whole entry E17K): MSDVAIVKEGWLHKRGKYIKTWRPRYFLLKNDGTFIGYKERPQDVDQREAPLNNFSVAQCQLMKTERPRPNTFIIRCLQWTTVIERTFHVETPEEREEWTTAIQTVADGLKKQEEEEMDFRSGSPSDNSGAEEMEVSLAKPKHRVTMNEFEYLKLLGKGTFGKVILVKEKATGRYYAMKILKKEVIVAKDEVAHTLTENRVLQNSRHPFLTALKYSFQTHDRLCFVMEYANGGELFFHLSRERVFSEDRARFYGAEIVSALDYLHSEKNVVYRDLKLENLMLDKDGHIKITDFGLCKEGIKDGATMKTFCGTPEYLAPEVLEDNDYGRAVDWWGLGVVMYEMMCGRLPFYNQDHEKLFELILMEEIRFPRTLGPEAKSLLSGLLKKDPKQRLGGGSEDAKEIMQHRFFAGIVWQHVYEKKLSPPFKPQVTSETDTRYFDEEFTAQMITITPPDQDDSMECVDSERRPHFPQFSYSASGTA

SMILES | pEC50
COc1c(N(C)C2CCN(Cc3ccc(-n4c(-c5cccnc5N)nc5cc(-c6ccccc6)cnc54)cc3)CC2)c(=O)c1=O [Example 32, 3-((1-(4-(2-(2-Aminopyridin-3-yl)-6-phenyl-3H-imidazo[4,5-b]pyridin-3-yl)benzyl)piperidin-4-yl)(methyl)amino)-4-methoxycyclobut-3-ene-1,2-dione] | 6.22 to 7.22
CNc1c(NC2CCN(Cc3ccc(-n4c(-c5cccnc5N)nc5ccc(-c6ccccc6)nc54)cc3)CC2)c(=O)c1=O [Example 20, 3-((1-(4-(2-(2-Aminopyridin-3-yl)-5-phenyl-3H-imidazo[4,5-b]pyridin-3-yl)benzyl)piperidin-4-yl)amino)-4-(methylamino)cyclobut-3-ene-1,2-dione] | 6.22 to 7.22
COc1c(NC2CCN(C(=O)c3ccc(-n4c(-c5cccnc5N)nc5ccc(-c6ccccc6)nc54)cc3)CC2)c(=O)c1=O [Example 28, 3-((1-(4-(2-(2-Aminopyridin-3-yl)-5-phenyl-3H-imidazo[4,5-b]pyridin-3-yl)benzoyl)piperidin-4-yl)amino)-4-methoxycyclobut-3-ene-1,2-dione] | < 6.22
COc1c(N2C3CCC2CN(Cc2ccc(-n4c(-c5cccnc5N)nc5ccc(-c6ccccc6)nc54)cc2)C3)c(=O)c1=O [Example 72, 3-(3-(4-(2-(2-aminopyridin-3-yl)-5-phenyl-3H-imidazo[4,5-b]pyridin-3-yl)benzyl)-3,8-diazabicyclo[3.2.1]octan-8-yl)-4-methoxycyclobut-3-ene-1,2-dione] | 6.22 to 7.22
COc1c(N2CCC(NCc3ccc(-n4c(-c5cccnc5N)nc5ccc(-c6ccccc6)nc54)cc3)CC2)c(=O)c1=O [Example 77, 3-(4-((4-(2-(2-aminopyridin-3-yl)-5-phenyl-3H-imidazo[4,5-b]pyridin-3-yl)benzyl)amino)piperidin-1-yl)-4-methoxycyclobut-3-ene-1,2-dione] | 7.22 to 7.82
COc1c(N2C[C@H]3CN(Cc4ccc(-n5c(-c6cccnc6N)nc6ccc(-c7ccccc7)nc65)cc4)C[C@H]3C2)c(=O)c1=O [Example 86, 3-((3aR,6aS)-5-(4-(2-(2-aminopyridin-3-yl)-5-phenyl-3H-imidazo[4,5-b]pyridin-3-yl)benzyl)hexahydropyrrolo[3,4-c]pyrrol-2(1H)-yl)-4-methoxycyclobut-3-ene-1,2-dione] | 7.22 to 7.82
CCSc1c(N2CCC3(CC2)CN(Cc2ccc(-n4c(-c5cccnc5N)nc5ccc(-c6ccccc6)nc54)cc2)C3)c(=O)c1=O [Example 61, 3-(2-(4-(2-(2-Aminopyridin-3-yl)-5-phenyl-3H-imidazo[4,5-b]pyridin-3-yl)benzyl)-2,7-diazaspiro[3.5]nonan-7-yl)-4-(ethylthio)cyclobut-3-ene-1,2-dione] | 7.22 to 7.82
COc1c(N2[C@@H](C)CN(Cc3ccc(-n4c(-c5cccnc5N)nc5ccc(-c6ccccc6)nc54)cc3)C[C@@H]2C)c(=O)c1=O [Example 70, 3-((2S,6S)-4-(4-(2-(2-aminopyridin-3-yl)-5-phenyl-3H-imidazo[4,5-b]pyridin-3-yl)benzyl)-2,6-dimethylpiperazin-1-yl)-4-methoxycyclobut-3-ene-1,2-dione] | 6.22 to 7.22
COc1c(N[C@H]2CCCN(Cc3ccc(-n4c(-c5cccnc5N)nc5ccc(-c6ccccc6)nc54)cc3)C2)c(=O)c1=O [Example 29, (S)-3-((1-(4-(2-(2-Aminopyridin-3-yl)-5-phenyl-3H-imidazo[4,5-b]pyridin-3-yl)benzyl)piperidin-3-yl)amino)-4-methoxycyclobut-3-ene-1,2-dione] | 6.22 to 7.22

Same assay, conditions: read-out: NanoBRET AKT1E17K EC50; HEK-293 cells transfected with NanoLuc-AKT E17K; competitive displacement of NanoBRET tracer; 2 hr equilibration; 10-point 3-fold dilution

SMILES | pEC50
CCOc1c(N2CC3(CN(Cc4ccc(-n5c(-c6cccnc6N)nc6ccc(-c7ccccc7)nc65)cc4)C3)C2)c(=O)c1=O [Example 40, 3-(6-(4-(2-(2-Aminopyridin-3-yl)-5-phenyl-3H-imidazo[4,5-b]pyridin-3-yl)benzyl)-2,6-diazaspiro[3.3]heptan-2-yl)-4-ethoxycyclobut-3-ene-1,2-dione] | > 7.82
COc1c(N2CC3(CCN(Cc4ccc(-n5c(-c6cccnc6N)nc6ccc(-c7ccccc7)nc65)cc4)C3)C2)c(=O)c1=O [Example 55, 3-(6-(4-(2-(2-Aminopyridin-3-yl)-5-phenyl-3H-imidazo[4,5-b]pyridin-3-yl)benzyl)-2,6-diazaspiro[3.4]octan-2-yl)-4-methoxycyclobut-3-ene-1,2-dione] | > 7.82
CSc1c(NC2CCN(Cc3ccc(-n4c(-c5cccnc5N)nc5ccc(-c6ccccc6)nc54)cc3)CC2)c(=O)c1=O [Example 45, 3-((1-(4-(2-(2-aminopyridin-3-yl)-5-phenyl-3H-imidazo[4,5-b]pyridin-3-yl)benzyl)piperidin-4-yl)amino)-4-(methylthio)cyclobut-3-ene-1,2-dione] | > 7.82
COc1c(N[C@@H]2CCCN(Cc3ccc(-n4c(-c5cccnc5N)nc5ccc(-c6ccccc6)nc54)cc3)C2)c(=O)c1=O [Example 34, (R)-3-((1-(4-(2-(2-aminopyridin-3-yl)-5-phenyl-3H-imidazo[4,5-b]pyridin-3-yl)benzyl)piperidin-3-yl)amino)-4-methoxycyclobut-3-ene-1,2-dione] | > 7.82
COc1c(N2CC3CCC(C2)N3Cc2ccc(-n3c(-c4cccnc4N)nc4ccc(-c5ccccc5)nc43)cc2)c(=O)c1=O [Example 71, 3-(8-(4-(2-(2-aminopyridin-3-yl)-5-phenyl-3H-imidazo[4,5-b]pyridin-3-yl)benzyl)-3,8-diazabicyclo[3.2.1]octan-3-yl)-4-methoxycyclobut-3-ene-1,2-dione] | > 7.82
COc1c(N2CC[C@]3(CCN(Cc4ccc(-n5c(-c6cccnc6N)nc6ccc(-c7ccccc7)nc65)cc4)C3)C2)c(=O)c1=O [Example 66, (S)-3-(7-(4-(2-(2-aminopyridin-3-yl)-5-phenyl-3H-imidazo[4,5-b]pyridin-3-yl)benzyl)-2,7-diazaspiro[4.4]nonan-2-yl)-4-methoxycyclobut-3-ene-1,2-dione] | > 7.82
COc1c(N(CCO)C2CCN(Cc3ccc(-n4c(-c5cccnc5N)nc5ccc(-c6ccccc6)nc54)cc3)CC2)c(=O)c1=O [Example 48, 3-((1-(4-(2-(2-Aminopyridin-3-yl)-5-phenyl-3H-imidazo[4,5-b]pyridin-3-yl)benzyl)piperidin-4-yl)(2-hydroxyethyl)amino)-4-methoxycyclobut-3-ene-1,2-dione] | > 7.82
CSc1c(N(C)C2CCN(Cc3ccc(-n4c(-c5cccnc5N)nc5ccc(-c6ccccc6)nc54)cc3)CC2)c(=O)c1=O [Example 47, 3-((1-(4-(2-(2-aminopyridin-3-yl)-5-phenyl-3H-imidazo[4,5-b]pyridin-3-yl)benzyl)piperidin-4-yl)(methyl)amino)-4-(methylthio)cyclobut-3-ene-1,2-dione] | > 7.82
CCSc1c(NC2CCN(Cc3ccc(-n4c(-c5cccnc5N)nc5ccc(-c6ccccc6)nc54)cc3)CC2)c(=O)c1=O [Example 39, 3-((1-(4-(2-(2-Aminopyridin-3-yl)-5-phenyl-3H-imidazo[4,5-b]pyridin-3-yl)benzyl)piperidin-4-yl)amino)-4-(ethylthio)cyclobut-3-ene-1,2-dione] | > 7.82
CCN(c1c(SC)c(=O)c1=O)C1CCN(Cc2ccc(-n3c(-c4cccnc4N)nc4ccc(-c5ccccc5)nc43)cc2)CC1 [Example 92, 3-((1-(4-(2-(2-aminopyridin-3-yl)-5-phenyl-3H-imidazo[4,5-b]pyridin-3-yl)benzyl)piperidin-4-yl)(ethyl)amino)-4-(methylthio)cyclobut-3-ene-1,2-dione] | > 7.82
COc1c(N2CCC3(CCN(Cc4ccc(-n5c(-c6cccnc6N)nc6ccc(-c7ccccc7)nc65)cc4)C3)C2)c(=O)c1=O (stereo not shown) [Example 56, 3-(7-(4-(2-(2-Aminopyridin-3-yl)-5-phenyl-3H-imidazo[4,5-b]pyridin-3-yl)benzyl)-2,7-diazaspiro[4.4]nonan-2-yl)-4-methoxycyclobut-3-ene-1,2-dione] | > 7.82
CSc1c(N2CCC3(CC2)CN(Cc2ccc(-n4c(-c5cccnc5N)nc5ccc(-c6ccccc6)nc54)cc2)C3)c(=O)c1=O [Example 64, 3-(2-(4-(2-(2-aminopyridin-3-yl)-5-phenyl-3H-imidazo[4,5-b]pyridin-3-yl)benzyl)-2,7-diazaspiro[3.5]nonan-7-yl)-4-(methylthio)cyclobut-3-ene-1,2-dione] | > 7.82
COc1c(N2CC[C@@]3(CCN(Cc4ccc(-n5c(-c6cccnc6N)nc6ccc(-c7ccccc7)nc65)cc4)C3)C2)c(=O)c1=O [Example 62, (R)-3-(7-(4-(2-(2-Aminopyridin-3-yl)-5-phenyl-3H-imidazo[4,5-b]pyridin-3-yl)benzyl)-2,7-diazaspiro[4.4]nonan-2-yl)-4-methoxycyclobut-3-ene-1,2-dione] | > 7.82
